ChEMBL document CHEMBL1201862, “PubChem BioAssay data set” (2004)
Active and inactive are the calls of the source.

Key:
Fatty acid synthase [1] = target: T1, Fatty acid synthase (Homo sapiens, UniProt P49327); test: inhibition of human FAS-TE enzyme activity – biochemical, kinetic fluorescence intensity, dose response (AID 624326); type: functional;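 also: rate of fluorescence rise from hydrolysis of a fluorogenic O-methyl fluorescein ester substrate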
Fatty acid synthase [2] = target: T1, Fatty acid synthase; test: inhibition of human FAS-TE enzyme activity – biochemical, endpoint fluorescence intensity, uHTS hits, dose response (AID 624327); type: functional;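 also: fluorescence from hydrolysis of an O-methyl fluorescein acyl ester substrate by the enzyme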
[3] = target: Heat shock protein HSP 90-alpha (Homo sapiens, UniProt P07900); type: functional, organism-based
[4] = target: T2, High affinity choline transporter 1 (Homo sapiens, UniProt Q9GZV3); test: human choline transporter blockers, potency – cell-based, 5-point CRC, membrane potential dye, dose response (AID 504840); type: functional
T2 sequence (Q9GZV3 whole entry): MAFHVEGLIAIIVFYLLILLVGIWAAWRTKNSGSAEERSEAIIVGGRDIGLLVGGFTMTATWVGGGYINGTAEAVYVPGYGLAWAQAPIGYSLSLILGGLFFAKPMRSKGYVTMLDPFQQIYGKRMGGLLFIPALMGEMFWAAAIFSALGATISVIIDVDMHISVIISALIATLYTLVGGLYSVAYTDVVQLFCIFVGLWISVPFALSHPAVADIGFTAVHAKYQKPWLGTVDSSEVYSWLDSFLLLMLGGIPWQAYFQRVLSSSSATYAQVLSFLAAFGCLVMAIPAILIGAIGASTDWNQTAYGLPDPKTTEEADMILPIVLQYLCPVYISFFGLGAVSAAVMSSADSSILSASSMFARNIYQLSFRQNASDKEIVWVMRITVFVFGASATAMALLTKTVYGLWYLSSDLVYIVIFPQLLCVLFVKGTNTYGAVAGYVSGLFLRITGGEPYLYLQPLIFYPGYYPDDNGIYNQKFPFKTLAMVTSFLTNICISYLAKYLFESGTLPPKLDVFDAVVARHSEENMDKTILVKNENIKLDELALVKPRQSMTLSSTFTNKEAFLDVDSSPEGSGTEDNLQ

[5] = target: T3, Long-chain-fatty-acid--AMP ligase FadD28 (Mycobacterium tuberculosis, UniProt P9WQ59); test: Fluorescence polarization aasay to screen for inhibitors that compete for the binding of FadD28 to a bisubstrate Measured in Biochemical System Using Plate Reader - 2147-01_Inhibitor_Dose_CherryPick_Activity.; type: functional, Mycobacterium tuberculosis H37Rv
T3 sequence (P9WQ59 whole entry): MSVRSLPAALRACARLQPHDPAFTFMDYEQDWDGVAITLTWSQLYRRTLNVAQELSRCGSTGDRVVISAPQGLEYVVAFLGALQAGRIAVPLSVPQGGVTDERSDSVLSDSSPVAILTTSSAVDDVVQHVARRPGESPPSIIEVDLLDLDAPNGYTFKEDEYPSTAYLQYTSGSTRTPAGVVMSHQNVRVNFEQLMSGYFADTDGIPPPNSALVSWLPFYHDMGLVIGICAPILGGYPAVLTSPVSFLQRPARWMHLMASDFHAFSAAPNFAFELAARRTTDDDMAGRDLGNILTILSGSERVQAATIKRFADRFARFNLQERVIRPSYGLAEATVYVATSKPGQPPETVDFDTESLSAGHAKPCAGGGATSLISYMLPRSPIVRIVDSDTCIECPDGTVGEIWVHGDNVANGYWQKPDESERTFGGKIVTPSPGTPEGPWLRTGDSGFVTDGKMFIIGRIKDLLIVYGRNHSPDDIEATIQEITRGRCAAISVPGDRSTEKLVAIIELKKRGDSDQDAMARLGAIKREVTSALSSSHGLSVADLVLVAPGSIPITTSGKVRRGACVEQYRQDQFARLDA

[6] = target: Voltage-dependent T-type calcium channel subunit alpha-1H (Homo sapiens, UniProt O95180); type: functional;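 also: channel activity triggered by adding a high calcium stimulation buffer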
Voltage-dependent T-type calcium channel subunit alpha-1H, sequence (O95180 whole entry): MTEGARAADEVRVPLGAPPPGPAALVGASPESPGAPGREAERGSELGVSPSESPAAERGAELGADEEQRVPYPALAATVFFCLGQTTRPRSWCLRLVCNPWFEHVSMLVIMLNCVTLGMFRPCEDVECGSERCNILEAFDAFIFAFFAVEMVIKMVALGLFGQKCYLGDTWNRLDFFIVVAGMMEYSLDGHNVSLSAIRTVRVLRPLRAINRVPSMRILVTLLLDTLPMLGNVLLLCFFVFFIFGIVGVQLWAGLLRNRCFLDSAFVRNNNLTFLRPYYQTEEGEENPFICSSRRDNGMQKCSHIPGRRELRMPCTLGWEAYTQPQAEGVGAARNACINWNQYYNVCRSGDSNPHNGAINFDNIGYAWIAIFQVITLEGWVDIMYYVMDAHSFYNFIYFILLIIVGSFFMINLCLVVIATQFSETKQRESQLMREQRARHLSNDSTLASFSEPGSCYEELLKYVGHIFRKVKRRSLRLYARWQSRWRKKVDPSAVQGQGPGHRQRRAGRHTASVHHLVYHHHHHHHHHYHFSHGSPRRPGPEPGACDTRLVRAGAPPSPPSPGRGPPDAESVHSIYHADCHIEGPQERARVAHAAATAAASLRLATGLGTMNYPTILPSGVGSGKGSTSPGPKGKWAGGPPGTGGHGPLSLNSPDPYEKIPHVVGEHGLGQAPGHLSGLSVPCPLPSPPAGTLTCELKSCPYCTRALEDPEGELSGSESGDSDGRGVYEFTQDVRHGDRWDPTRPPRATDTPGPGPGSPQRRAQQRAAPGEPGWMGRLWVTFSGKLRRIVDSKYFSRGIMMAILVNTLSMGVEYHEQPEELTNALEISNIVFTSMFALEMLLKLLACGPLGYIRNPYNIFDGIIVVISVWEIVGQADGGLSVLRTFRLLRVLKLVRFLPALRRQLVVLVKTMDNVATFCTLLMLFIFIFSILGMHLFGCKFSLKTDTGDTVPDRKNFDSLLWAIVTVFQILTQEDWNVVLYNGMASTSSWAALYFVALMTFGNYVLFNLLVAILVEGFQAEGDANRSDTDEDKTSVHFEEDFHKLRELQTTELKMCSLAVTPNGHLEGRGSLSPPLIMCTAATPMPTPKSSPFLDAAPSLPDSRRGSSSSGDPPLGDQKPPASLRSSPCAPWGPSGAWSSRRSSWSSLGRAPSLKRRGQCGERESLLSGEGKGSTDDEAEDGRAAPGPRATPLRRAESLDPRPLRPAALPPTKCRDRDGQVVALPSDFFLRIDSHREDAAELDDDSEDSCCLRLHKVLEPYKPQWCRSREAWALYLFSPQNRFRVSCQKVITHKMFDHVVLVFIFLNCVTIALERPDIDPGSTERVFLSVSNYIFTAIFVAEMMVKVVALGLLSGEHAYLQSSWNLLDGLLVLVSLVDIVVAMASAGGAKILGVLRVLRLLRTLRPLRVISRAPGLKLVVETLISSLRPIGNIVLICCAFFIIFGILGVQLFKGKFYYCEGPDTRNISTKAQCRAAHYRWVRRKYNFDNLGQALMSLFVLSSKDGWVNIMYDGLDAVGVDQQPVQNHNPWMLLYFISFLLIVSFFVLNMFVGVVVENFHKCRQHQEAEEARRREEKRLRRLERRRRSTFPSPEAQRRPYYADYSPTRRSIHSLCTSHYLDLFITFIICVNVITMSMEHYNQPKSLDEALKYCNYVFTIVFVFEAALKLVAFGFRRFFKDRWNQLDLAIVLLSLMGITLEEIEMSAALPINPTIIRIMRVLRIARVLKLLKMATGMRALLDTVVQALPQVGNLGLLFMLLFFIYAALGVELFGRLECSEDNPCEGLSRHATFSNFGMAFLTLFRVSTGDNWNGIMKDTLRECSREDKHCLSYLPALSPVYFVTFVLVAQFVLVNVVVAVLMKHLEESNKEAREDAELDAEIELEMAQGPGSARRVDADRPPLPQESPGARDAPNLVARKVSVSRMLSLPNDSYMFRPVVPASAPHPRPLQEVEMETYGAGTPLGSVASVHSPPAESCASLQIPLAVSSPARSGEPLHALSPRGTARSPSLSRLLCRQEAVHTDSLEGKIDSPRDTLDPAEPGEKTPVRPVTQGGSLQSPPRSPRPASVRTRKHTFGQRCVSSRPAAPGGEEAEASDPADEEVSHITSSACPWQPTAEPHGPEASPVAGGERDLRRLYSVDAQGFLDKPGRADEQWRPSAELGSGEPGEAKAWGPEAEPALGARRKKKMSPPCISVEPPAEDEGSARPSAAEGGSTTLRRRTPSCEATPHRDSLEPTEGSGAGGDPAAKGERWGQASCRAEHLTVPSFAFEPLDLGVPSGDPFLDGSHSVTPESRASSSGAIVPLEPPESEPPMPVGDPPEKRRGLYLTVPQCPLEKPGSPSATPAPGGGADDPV

[7] = target: T4, Ubiquitin-conjugating enzyme E2 N (Homo sapiens, UniProt P61088); type: functional;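 also: Dose-response confirmation in a TR-FRET assay detecting UBC13-driven polyubiquitin chain formation, inhibition measured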
T4 sequence (P61088 whole entry): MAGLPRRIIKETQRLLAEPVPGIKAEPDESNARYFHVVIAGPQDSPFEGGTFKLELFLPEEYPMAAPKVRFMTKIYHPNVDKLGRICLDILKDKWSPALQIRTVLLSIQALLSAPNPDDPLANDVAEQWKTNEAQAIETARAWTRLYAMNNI

[8] = viability of HCT116 lacking mutant beta-catenin – cell-based, human colon tumor, dose response (AID 1045); type: functional;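 also: HCT116 colon tumor cells with beta catenin knocked out; cells exposed to compound for 60 hours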
[9] = viability of PTEN-deleted HCT116 cells – cell-based, HCT116 PTEN knockout, dose response (AID 1047); type: functional;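 also: HCT116 colon tumor cells with PTEN knocked out; cells exposed to compound for 60 hours before readout; potency for loss of cell viability measured by luminescence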
[10] = target: T5, Heat shock factor protein 1 (Mus musculus, UniProt P38532); test: decrease of HSF1-responsive luciferase luminescence – cell-based, NIH3T3, dose retest, confirmation (AID 2382); type: functional;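 also: NIH3T3 fibroblasts with HSF1-driven luciferase reporter stressed by proteasome inhibitor MG132; luminescence from HSF1-driven luciferase expression after 8 hours of MG132 stress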
T5 sequence (P38532 whole entry): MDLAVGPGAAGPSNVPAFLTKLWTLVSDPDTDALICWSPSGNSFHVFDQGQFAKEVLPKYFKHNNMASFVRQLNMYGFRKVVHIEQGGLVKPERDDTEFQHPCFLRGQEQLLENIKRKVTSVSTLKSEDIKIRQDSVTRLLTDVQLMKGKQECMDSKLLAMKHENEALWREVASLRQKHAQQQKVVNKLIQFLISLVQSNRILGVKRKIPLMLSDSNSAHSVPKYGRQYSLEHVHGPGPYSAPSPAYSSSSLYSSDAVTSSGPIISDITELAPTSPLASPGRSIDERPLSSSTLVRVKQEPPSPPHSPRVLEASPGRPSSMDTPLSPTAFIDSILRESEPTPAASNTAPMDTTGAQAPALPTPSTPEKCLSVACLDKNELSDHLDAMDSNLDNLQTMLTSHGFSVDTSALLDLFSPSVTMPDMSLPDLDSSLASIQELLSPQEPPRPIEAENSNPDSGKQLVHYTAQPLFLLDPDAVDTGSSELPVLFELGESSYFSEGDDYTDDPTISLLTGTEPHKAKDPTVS

T1 sequence (P49327 whole entry): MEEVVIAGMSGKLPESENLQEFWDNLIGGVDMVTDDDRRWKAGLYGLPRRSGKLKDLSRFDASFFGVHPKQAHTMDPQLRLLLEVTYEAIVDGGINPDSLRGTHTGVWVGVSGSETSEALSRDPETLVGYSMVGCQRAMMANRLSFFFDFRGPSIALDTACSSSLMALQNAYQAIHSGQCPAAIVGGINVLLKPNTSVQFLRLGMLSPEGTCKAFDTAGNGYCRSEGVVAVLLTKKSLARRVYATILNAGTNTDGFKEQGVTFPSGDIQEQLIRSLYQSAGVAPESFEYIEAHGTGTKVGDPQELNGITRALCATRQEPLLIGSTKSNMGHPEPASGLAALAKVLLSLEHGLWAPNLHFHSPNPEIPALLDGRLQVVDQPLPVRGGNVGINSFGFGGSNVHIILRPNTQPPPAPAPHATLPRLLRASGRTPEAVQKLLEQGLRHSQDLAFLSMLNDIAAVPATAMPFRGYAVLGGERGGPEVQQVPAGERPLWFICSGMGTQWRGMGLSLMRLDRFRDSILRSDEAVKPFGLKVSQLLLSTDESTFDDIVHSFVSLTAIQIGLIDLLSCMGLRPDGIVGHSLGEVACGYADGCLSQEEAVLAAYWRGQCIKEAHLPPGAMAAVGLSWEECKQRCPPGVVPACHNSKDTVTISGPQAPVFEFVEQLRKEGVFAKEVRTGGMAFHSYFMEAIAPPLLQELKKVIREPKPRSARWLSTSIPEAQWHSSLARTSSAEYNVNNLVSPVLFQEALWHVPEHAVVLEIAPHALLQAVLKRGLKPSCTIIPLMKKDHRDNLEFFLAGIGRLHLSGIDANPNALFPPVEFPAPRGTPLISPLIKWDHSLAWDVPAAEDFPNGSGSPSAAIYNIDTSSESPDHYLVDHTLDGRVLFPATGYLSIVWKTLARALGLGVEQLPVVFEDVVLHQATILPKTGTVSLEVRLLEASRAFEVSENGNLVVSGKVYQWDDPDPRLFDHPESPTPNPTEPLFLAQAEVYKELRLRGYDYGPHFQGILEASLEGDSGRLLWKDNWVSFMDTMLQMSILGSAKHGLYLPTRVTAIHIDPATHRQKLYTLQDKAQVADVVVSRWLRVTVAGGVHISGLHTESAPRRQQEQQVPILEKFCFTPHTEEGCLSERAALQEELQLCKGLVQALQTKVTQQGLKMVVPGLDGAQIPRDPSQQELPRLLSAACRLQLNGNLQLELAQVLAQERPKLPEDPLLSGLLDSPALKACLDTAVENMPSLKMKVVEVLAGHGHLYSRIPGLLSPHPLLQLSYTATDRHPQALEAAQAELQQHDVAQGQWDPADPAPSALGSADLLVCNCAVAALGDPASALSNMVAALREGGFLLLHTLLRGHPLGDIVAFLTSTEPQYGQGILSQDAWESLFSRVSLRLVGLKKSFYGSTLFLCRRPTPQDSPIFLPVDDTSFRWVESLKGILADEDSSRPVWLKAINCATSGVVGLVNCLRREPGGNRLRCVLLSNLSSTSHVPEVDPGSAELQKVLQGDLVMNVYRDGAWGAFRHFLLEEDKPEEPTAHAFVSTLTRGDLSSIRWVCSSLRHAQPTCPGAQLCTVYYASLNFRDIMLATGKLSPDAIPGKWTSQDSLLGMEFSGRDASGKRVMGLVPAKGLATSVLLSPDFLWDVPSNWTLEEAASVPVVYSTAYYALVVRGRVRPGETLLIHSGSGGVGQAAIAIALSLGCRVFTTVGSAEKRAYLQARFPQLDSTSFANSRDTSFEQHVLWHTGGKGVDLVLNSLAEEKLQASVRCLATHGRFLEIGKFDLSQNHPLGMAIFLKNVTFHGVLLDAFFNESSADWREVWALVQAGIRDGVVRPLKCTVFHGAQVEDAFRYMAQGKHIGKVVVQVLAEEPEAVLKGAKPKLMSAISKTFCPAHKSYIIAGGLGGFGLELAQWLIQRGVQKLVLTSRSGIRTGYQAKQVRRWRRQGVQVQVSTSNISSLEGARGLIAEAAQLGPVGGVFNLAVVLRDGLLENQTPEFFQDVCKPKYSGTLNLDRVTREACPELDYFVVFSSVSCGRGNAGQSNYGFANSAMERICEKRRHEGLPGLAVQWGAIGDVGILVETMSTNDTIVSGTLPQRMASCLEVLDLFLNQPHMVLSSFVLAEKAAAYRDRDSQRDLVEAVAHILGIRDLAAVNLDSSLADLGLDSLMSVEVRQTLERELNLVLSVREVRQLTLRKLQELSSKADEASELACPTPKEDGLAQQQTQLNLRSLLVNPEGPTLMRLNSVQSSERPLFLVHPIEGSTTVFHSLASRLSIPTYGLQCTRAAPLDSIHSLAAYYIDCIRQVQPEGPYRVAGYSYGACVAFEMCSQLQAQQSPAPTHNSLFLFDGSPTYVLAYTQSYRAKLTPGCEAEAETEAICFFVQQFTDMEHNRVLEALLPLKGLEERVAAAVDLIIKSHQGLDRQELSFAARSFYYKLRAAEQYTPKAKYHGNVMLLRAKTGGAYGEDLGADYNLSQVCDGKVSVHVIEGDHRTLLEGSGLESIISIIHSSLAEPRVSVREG

Cc1nn(Cc2ccc([N+](=O)[O-])cc2)c(=O)n1-c1cccc(Cl)c1
IC50 (Fatty acid synthase [1]): 8.36 µM (active)
IC50 (Fatty acid synthase [2]): 5.54 µM (active)

CC1=C(C(=O)OCc2ccccc2)C(/C=C/c2ccccc2)NC(S)=N1 (stereo not drawn)
AC50 [3]: 4.08 µM (active)

CCS(=O)(=O)C1=NSC2=NC(=O)/C(=C\c3ccc(OS(=O)(=O)c4ccccc4)c(OC)c3)C(=N)N21
IC50 [4]: 13.5 µM (active)

O=C(O)c1ccc(-c2nc(-c3ccccc3)c(-c3ccccc3)[nH]2)cc1
AC50 [5]: 92.3 µM (active)

Cc1ccccc1-n1nc2c(c1NC(=O)c1ccc(Br)o1)CSC2
EC50 [6]: 5.29 µM (active)

CC(=O)c1cc(C#N)c(SCCC(C)C)nc1C
IC50 (Fatty acid synthase [1]): 9.54 µM (active)
IC50 (Fatty acid synthase [2]): 9.77 µM (active)

Cc1cc(C2N=C(N)Nc3nc4ccccc4n32)c(C)n1-c1ccccc1Cl (stereo not drawn)
IC50 [7]: > 20 µM (inactive)
EC50 [8]: 23.4 µM (active)
EC50 [9]: 30.1 µM (active)

Cn1c(SCC(=O)Nc2ncc(C(F)(F)F)cc2Cl)nnc1-c1ccc(Cl)cc1
EC50 [10]: > 195 µM (not active)
IC50 (Fatty acid synthase [1]): 0.572 µM (active)
IC50 (Fatty acid synthase [2]): 0.551 µM (active)

COc1ccc([N+](=O)[O-])cc1NC(=O)N(C)Cc1ccco1
IC50 (Fatty acid synthase [1]): 21.1 µM (inactive)
IC50 (Fatty acid synthase [2]): 17.7 µM (active)

COc1ccc(C(c2nnnn2Cc2ccc(F)cc2)N2CCN(c3ccccc3)CC2)cc1 (stereo not drawn)
EC50 [6]: 2.66 µM (active)

COc1ccc(C2=CC3=C(Br)C(=O)C(C)(O)C(=O)C3=CO2)cc1 (stereo not drawn)
AC50 [3]: 2.62 µM (active)

Cc1cccc(NC(=O)COC(=O)c2cccc(S(=O)(=O)N3CCCCCC3)c2)c1
AC50 [5]: 7.43 µM (active)

Cc1ccc(S(=O)(=O)N(CC(=O)N2CCN(c3ccc(F)cc3)CC2)C2CCCCC2)cc1
EC50 [6]: 4.33 µM (active)

CCN(CCO)C1CC(=O)N(c2ccccc2C)C1=O (stereo not drawn)
AC50 [3]: 2.14 µM (active)

COC(=O)CSc1nnc(-c2ccc(NS(=O)(=O)c3ccccc3)cc2)o1
IC50 [4]: 12 µM (active)

CCN(CC)S(=O)(=O)c1cccc(C(=O)NCC(c2ccccc2)N(C)C)c1 (stereo not drawn)
AC50 [3]: 3.2 µM (active)
